According to ChEMBL document CHEMBL3585290, “Synthesis and biological evaluation of novel bivalent -carbolines as potential antitumor agents” (Medchemcomm, 2014):
pIC50: −log10 of the molar value.

Columns and labels:
[1] = Acute toxicity in ip dosed C57BL/6 mouse measured for 14 days; assay type: organism-based; settings: in vivo
769-P = experiment: Cytotoxicity against human 769-P cells after 48 hrs by MTT assay; assay type: functional, cell-based
[2] = tested on: Lewis lung carcinoma cell line; experiment: Antitumor activity against mouse LLC cells implanted in mouse assessed as tumor growth inhibition at 32.3 umol/kg, ip qd administered for 7 days starting 24 hrs post tumor implantation measured after day 21 relative to control; assay type: functional; settings: read-out: TGI
[3] = Cytotoxicity against human BGC823 cells after 48 hrs by MTT assay; assay type: functional, cell-based; settings: BGC-823, 48 h
CT26 [4] = experiment: Antitumor activity against mouse CT26 cells implanted in mouse assessed as tumor growth inhibition at 32.3 umol/kg, ip qd administered for 7 days starting 24 hrs post tumor implantation measured after day 21 relative to control; assay type: functional; settings: read-out: TGI
KB = experiment: Cytotoxicity against human KB cells after 48 hrs by MTT assay; assay type: functional, cell-based
A-375 = experiment: Cytotoxicity against human A375 cells after 48 hrs by MTT assay; assay type: functional, cell-based; settings: A-375, 48 h
SK-OV-3 = experiment: Cytotoxicity against human SKOV3 cells after 48 hrs by MTT assay; assay type: functional, cell-based; settings: SK-OV-3, 48 h
[5] = tested on: Lewis lung carcinoma cell line; experiment: Antitumor activity against mouse LLC cells implanted in mouse assessed as tumor growth inhibition at 26.9 umol/kg, ip qd administered for 7 days starting 24 hrs post tumor implantation measured after day 21 relative to control; assay type: functional; settings: read-out: TGI
CT26 [6] = experiment: Antitumor activity against mouse CT26 cells implanted in mouse assessed as tumor growth inhibition at 26.9 umol/kg, ip qd administered for 7 days starting 24 hrs post tumor implantation measured after day 21 relative to control; assay type: functional; settings: read-out: TGI
CT26 [7] = experiment: Antitumor activity against mouse CT26 cells implanted in mouse assessed as tumor growth inhibition at 76.9 umol/kg, ip qd administered for 7 days starting 24 hrs post tumor implantation measured after day 21 relative to control; assay type: functional; settings: read-out: TGI
[8] = tested on: Lewis lung carcinoma cell line; experiment: Antitumor activity against mouse LLC cells implanted in mouse assessed as tumor growth inhibition at 76.9 umol/kg, ip qd administered for 7 days starting 24 hrs post tumor implantation measured after day 21 relative to control; assay type: functional; settings: read-out: TGI
CT26 [9] = experiment: Antitumor activity against mouse CT26 cells implanted in mouse assessed as tumor growth inhibition at 11.1 umol/kg, ip qd administered for 7 days starting 24 hrs post tumor implantation measured after day 21 relative to control; assay type: functional; settings: read-out: TGI
[10] = tested on: Lewis lung carcinoma cell line; experiment: Antitumor activity against mouse LLC cells implanted in mouse assessed as tumor growth inhibition at 11.1 umol/kg, ip qd administered for 7 days starting 24 hrs post tumor implantation measured after day 21 relative to control; assay type: functional; settings: read-out: TGI
CT26 [11] = experiment: Antitumor activity against mouse CT26 cells implanted in mouse assessed as tumor growth inhibition at 223.8 umol/kg, ip qd administered for 7 days starting 24 hrs post tumor implantation measured after day 21 relative to control; assay type: functional; settings: read-out: TGI
[12] = tested on: Lewis lung carcinoma cell line; experiment: Antitumor activity against mouse LLC cells implanted in mouse assessed as tumor growth inhibition at 223.8 umol/kg, ip qd administered for 7 days starting 24 hrs post tumor implantation measured after day 21 relative to control; assay type: functional; settings: read-out: TGI

Row | SMILES | pIC50 (769-P) | pIC50 [3] | pIC50 (KB) | pIC50 (A-375) | pIC50 (SK-OV-3) | other results
1 | CCCCn1c2ccccc2c2cc(C(=O)OCCCCCCOC(=O)c3cc4c5ccccc5n(CCCC)c4cn3)ncc21 | 3.95 | 4.36 | 4.81 | 4.74 | < 3.70 | LD50 at 336 h [1]: 162 µmol/kg; inhibition in vivo at 32.3 µmol/kg [2]: 64.2%; inhibition in vivo at 32.3 µmol/kg (CT26 [4]): 33.8%
2 | Cc1nc(C(=O)OCCCCCCOC(=O)c2cc3c4ccccc4n(C)c3c(C)n2)cc2c3ccccc3n(C)c12 | 4.55 | < 3.70 | 3.78 | 4.08 | < 3.70 | –
3 | CCn1c2ccccc2c2cc(C(=O)OCCCCCCCCCOC(=O)c3cc4c5ccccc5n(CC)c4c(C)n3)nc(C)c21 | 4.99 | < 3.70 | 4.24 | < 3.70 | < 3.70 | –
4 | CCn1c2ccccc2c2cc(C(=O)OCCCCCCOC(=O)c3cc4c5ccccc5n(CC)c4c(-c4ccc(OC)cc4)n3)nc(-c3ccc(OC)cc3)c21 | 4.18 | < 3.70 | 4.05 | < 3.70 | < 3.70 | –
5 | COc1cc(-c2nc(C(=O)OCCCCCCOC(=O)c3cc4c5ccccc5n(CCCc5ccccc5)c4c(-c4cc(OC)c(OC)c(OC)c4)n3)cc3c4ccccc4n(CCCc4ccccc4)c23)cc(OC)c1OC | 3.93 | 3.77 | < 3.70 | 3.87 | < 3.70 | –
6 | CCCCn1c2ccccc2c2cc(C(=O)OCCCCCCCCCOC(=O)c3cc4c5ccccc5n(CCCC)c4cn3)ncc21 | 3.94 | < 3.70 | 4.58 | 4.05 | < 3.70 | –
7 | CCCCn1c2ccccc2c2cc(C(=O)OCCCCCOC(=O)c3cc4c5ccccc5n(CCCC)c4cn3)ncc21 | 4.48 | < 3.70 | 4.27 | < 3.70 | < 3.70 | –
8 | CCCCn1c2ccccc2c2cc(C(=O)OCCCCCCCCOC(=O)c3cc4c5ccccc5n(CCCC)c4cn3)ncc21 | 3.68 | 4.16 | 4.70 | 3.84 | 3.91 | –
9 | Cc1nc(C(=O)OCCCCCCOC(=O)c2cc3c4ccccc4n(CCCc4ccccc4)c3c(C)n2)cc2c3ccccc3n(CCCc3ccccc3)c12 | 4.66 | < 3.70 | < 3.70 | < 3.70 | 4.13 | –
10 | O=C(OCCCCCCCCCOC(=O)c1cc2c3ccccc3n(Cc3cccc(Cl)c3)c2cn1)c1cc2c3ccccc3n(Cc3cccc(Cl)c3)c2cn1 | 3.84 | < 3.70 | 4.15 | < 3.70 | < 3.70 | –
11 | O=C(OCCCCCCOC(=O)c1cc2c3ccccc3n(CCCc3ccccc3)c2cn1)c1cc2c3ccccc3n(CCCc3ccccc3)c2cn1 | 4.53 | < 3.70 | 4.25 | 4.84 | 5.07 | LD50 at 336 h [1]: 135 µmol/kg; inhibition in vivo at 26.9 µmol/kg [5]: 53.5%; inhibition in vivo at 26.9 µmol/kg (CT26 [6]): 28.3%
12 | O=C(OCCCCCCOC(=O)c1cc2c3ccccc3n(Cc3ccccc3)c2cn1)c1cc2c3ccccc3n(Cc3ccccc3)c2cn1 | 4.33 | 3.79 | 4.80 | < 3.70 | 4.56 | –
13 | O=C(OCCCCOC(=O)c1cc2c3ccccc3n(Cc3ccccc3)c2cn1)c1cc2c3ccccc3n(Cc3ccccc3)c2cn1 | 4.34 | 4.36 | < 3.70 | 5.10 | < 3.70 | –
14 | Cc1nc(C(=O)OCCCCCCOC(=O)c2cc3c4ccccc4n(Cc4ccccc4)c3c(C)n2)cc2c3ccccc3n(Cc3ccccc3)c12 | 4.19 | < 3.70 | 3.95 | < 3.70 | < 3.70 | –
15 | Cc1nc(C(=O)OCCCCCCCCCCOC(=O)c2cc3c4ccccc4n(C)c3c(C)n2)cc2c3ccccc3n(C)c12 | 4.37 | < 3.70 | 3.70 | 3.90 | < 3.70 | –
16 | O=C(OCCCOC(=O)c1cc2c3ccccc3n(CCCc3ccccc3)c2cn1)c1cc2c3ccccc3n(CCCc3ccccc3)c2cn1 | 4.02 | < 3.70 | 4.14 | < 3.70 | < 3.70 | –

Row | SMILES | pIC50 (769-P) | pIC50 [3] | pIC50 (KB) | pIC50 (A-375) | pIC50 (SK-OV-3) | other results
17 | Cc1nc(C(=O)OCCCOC(=O)c2cc3c4ccccc4n(C)c3c(C)n2)cc2c3ccccc3n(C)c12 | 4.79 | 4.71 | 4.74 | 4.78 | 4.68 | inhibition in vivo at 76.9 µmol/kg (CT26 [7]): 23.6%; LD50 at 336 h [1]: 385 µmol/kg; inhibition in vivo at 76.9 µmol/kg [8]: 28.1%
18 | O=C(OCCCCCCOC(=O)c1cc2c3ccccc3n(Cc3cccc(Cl)c3)c2cn1)c1cc2c3ccccc3n(Cc3cccc(Cl)c3)c2cn1 | 4.66 | < 3.70 | 4.33 | < 3.70 | 4.72 | –
19 | O=C(OCCCCCCCCOC(=O)c1cc2c3ccccc3n(Cc3ccccc3)c2cn1)c1cc2c3ccccc3n(Cc3ccccc3)c2cn1 | 4.16 | < 3.70 | 3.79 | < 3.70 | < 3.70 | –
20 | CCCCn1c2ccccc2c2cc(C(=O)OCCCCCCCOC(=O)c3cc4c5ccccc5n(CCCC)c4c(C)n3)nc(C)c21 | 4.02 | < 3.70 | < 3.70 | < 3.70 | 4.15 | –
21 | CCCCn1c2ccccc2c2cc(C(=O)OCCCCOC(=O)c3cc4c5ccccc5n(CCCC)c4cn3)ncc21 | 4.37 | 3.94 | 4.05 | < 3.70 | 3.91 | –
22 | CCn1c2ccccc2c2cc(C(=O)OCCCCCCOC(=O)c3cc4c5ccccc5n(CC)c4c(C)n3)nc(C)c21 | 4.37 | < 3.70 | 4.78 | 4.48 | < 3.70 | –
23 | COc1ccc(-c2nc(C(=O)OCCCCCCOC(=O)c3cc4c5ccccc5n(CCCc5ccccc5)c4c(-c4ccc(OC)cc4)n3)cc3c4ccccc4n(CCCc4ccccc4)c23)cc1 | 4.02 | 3.85 | 3.66 | 3.88 | < 3.70 | inhibition in vivo at 11.1 µmol/kg (CT26 [9]): 15.1%; LD50 at 336 h [1]: 55.8 µmol/kg; inhibition in vivo at 11.1 µmol/kg [10]: 24.6%
24 | Cc1nc(C(=O)OCCCCCCCCCOC(=O)c2cc3c4ccccc4n(CCCc4ccccc4)c3c(C)n2)cc2c3ccccc3n(CCCc3ccccc3)c12 | 3.97 | < 3.70 | 4.29 | < 3.70 | < 3.70 | –
25 | CCCCn1c2ccccc2c2cc(C(=O)O)ncc21 | 4.37 | 3.90 | 4.17 | 4.10 | < 3.70 | LD50 at 336 h [1]: 1120 µmol/kg; inhibition in vivo at 223.8 µmol/kg (CT26 [11]): 18.7%; inhibition in vivo at 223.8 µmol/kg [12]: 45.4%
26 | CCCCn1c2ccccc2c2cc(C(=O)OCCCCCCCCCCOC(=O)c3cc4c5ccccc5n(CCCC)c4cn3)ncc21 | 4.05 | 3.77 | 4.34 | < 3.70 | < 3.70 | –
27 | CCCCn1c2ccccc2c2cc(C(=O)OCCCCCCCCCCOC(=O)c3cc4c5ccccc5n(CCCC)c4c(C)n3)nc(C)c21 | 3.94 | < 3.70 | < 3.70 | 4.38 | < 3.70 | –
28 | CCCCn1c2ccccc2c2cc(C(=O)OCCCCCCOC(=O)c3cc4c5ccccc5n(CCCC)c4c(C)n3)nc(C)c21 | 4.22 | < 3.70 | 4.26 | < 3.70 | < 3.70 | –
29 | O=C(OCCCCCCCOC(=O)c1cc2c3ccccc3n(CCCc3ccccc3)c2cn1)c1cc2c3ccccc3n(CCCc3ccccc3)c2cn1 | 4.36 | < 3.70 | 4.10 | 3.84 | < 3.70 | –
30 | CCn1c2ccccc2c2cc(C(=O)OCCCCCCCCOC(=O)c3cc4c5ccccc5n(CC)c4c(C)n3)nc(C)c21 | 4.66 | < 3.70 | < 3.70 | 4.06 | 4.06 | –
31 | Cc1nc(C(=O)OCCCCCOC(=O)c2cc3c4ccccc4n(Cc4ccccc4)c3c(C)n2)cc2c3ccccc3n(Cc3ccccc3)c12 | 4.14 | < 3.70 | 4.37 | 3.90 | < 3.70 | –
32 | CCn1c2ccccc2c2cc(C(=O)OCCCCCCOC(=O)c3cc4c5ccccc5n(CC)c4c(-c4cc(OC)c(OC)c(OC)c4)n3)nc(-c3cc(OC)c(OC)c(OC)c3)c21 | 4.96 | 3.80 | 4.68 | 4.39 | 4.32 | –
